Assay results: paper PMC10817531, “Chlorinated Enyne Fatty Acid Amides from a Marine Cyanobacterium: Discovery of Taveuniamides L-M and Pharmacological Characterization of Taveuniamide F as a GPCR Antagonist with CNR1 Selectivity” (Marine Drugs, 2023)

Legend:
Test in all cases: PathHunter β-arrestin GpcrMAX assay
Type in all cases: cell-based
[1] = molecular target: T1, EDG6 (Homo sapiens, UniProt O95977)
T1 construct: purchased DiscoveRx (Eurofins) gpcrMAX PathHunter β-arrestin panel
Method: (§1) GpcrMAX panel biosensor assays were used to characterize taveuniamide F (4, 20 µM) (agonist and antagonist mode). The experiments were carried out by DiscoveRx Corporation (Fremont, CA, USA) as described before, using PathHunter β-arrestin enzyme fragment complementation (EFC) technology.

[2] = molecular target: T2, EDG4 (Homo sapiens, UniProt Q9HBW0)
T2 construct: purchased DiscoveRx (Eurofins) gpcrMAX PathHunter β-arrestin panel
T2 sequence (Q9HBW0 whole entry): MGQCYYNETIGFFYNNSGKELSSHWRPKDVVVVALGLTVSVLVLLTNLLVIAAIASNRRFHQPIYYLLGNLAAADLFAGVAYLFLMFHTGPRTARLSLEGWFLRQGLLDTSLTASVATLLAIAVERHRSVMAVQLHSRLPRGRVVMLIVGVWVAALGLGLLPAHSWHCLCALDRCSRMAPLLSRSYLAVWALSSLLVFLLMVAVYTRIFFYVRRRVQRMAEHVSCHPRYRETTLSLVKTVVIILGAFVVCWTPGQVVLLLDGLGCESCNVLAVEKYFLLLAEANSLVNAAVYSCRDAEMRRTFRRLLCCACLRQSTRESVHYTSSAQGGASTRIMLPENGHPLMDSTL
Method: as §1

[3] = molecular target: T3, ADRA2B (Homo sapiens, UniProt P18089)
T3 construct: purchased DiscoveRx (Eurofins) gpcrMAX PathHunter β-arrestin panel
Method: as §1

[4] = molecular target: T4, SSTR5 (Homo sapiens, UniProt P35346)
T4 construct: purchased DiscoveRx (Eurofins) gpcrMAX PathHunter β-arrestin panel
Method: as §1

[5] = molecular target: BRS3 (Homo sapiens, UniProt P32247)
Method: as §1

[6] = molecular target: T5, P2RY12 (Homo sapiens, UniProt Q9H244)
T5 construct: purchased DiscoveRx (Eurofins) gpcrMAX PathHunter β-arrestin panel
Method: as §1

[7] = molecular target: T6, DRD2L (Homo sapiens, UniProt P14416)
T6 construct: purchased DiscoveRx (Eurofins) gpcrMAX PathHunter β-arrestin panel
T6 sequence (P14416 whole entry): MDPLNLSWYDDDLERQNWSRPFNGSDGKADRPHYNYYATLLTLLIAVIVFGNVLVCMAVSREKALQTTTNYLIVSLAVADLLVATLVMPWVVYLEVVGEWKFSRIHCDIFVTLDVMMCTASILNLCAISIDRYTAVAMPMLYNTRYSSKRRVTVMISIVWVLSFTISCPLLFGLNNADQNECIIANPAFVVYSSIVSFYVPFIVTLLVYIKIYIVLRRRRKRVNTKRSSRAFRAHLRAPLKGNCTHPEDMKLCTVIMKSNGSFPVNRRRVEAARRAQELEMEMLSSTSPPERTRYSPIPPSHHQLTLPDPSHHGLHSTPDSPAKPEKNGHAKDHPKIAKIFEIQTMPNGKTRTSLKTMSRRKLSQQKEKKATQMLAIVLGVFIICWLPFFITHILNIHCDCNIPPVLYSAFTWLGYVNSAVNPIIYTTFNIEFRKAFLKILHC
Method: as §1

[8] = molecular target: T7, SSTR1 (Homo sapiens, UniProt P30872)
T7 construct: purchased DiscoveRx (Eurofins) gpcrMAX PathHunter β-arrestin panel
Method: as §1

[9] = molecular target: T8, HCRTR2 (Homo sapiens, UniProt O43614)
T8 construct: purchased DiscoveRx (Eurofins) gpcrMAX PathHunter β-arrestin panel
Method: as §1

[10] = molecular target: C3AR1 (Homo sapiens, UniProt Q16581)
Method: as §1

[11] = molecular target: T9, MCHR1 (Homo sapiens, UniProt Q99705)
T9 construct: purchased DiscoveRx (Eurofins) gpcrMAX PathHunter β-arrestin panel
Method: as §1

[12] = molecular target: AGTR1 (Homo sapiens, UniProt P30556)
Chain of AGTR1 (P30556 whole entry): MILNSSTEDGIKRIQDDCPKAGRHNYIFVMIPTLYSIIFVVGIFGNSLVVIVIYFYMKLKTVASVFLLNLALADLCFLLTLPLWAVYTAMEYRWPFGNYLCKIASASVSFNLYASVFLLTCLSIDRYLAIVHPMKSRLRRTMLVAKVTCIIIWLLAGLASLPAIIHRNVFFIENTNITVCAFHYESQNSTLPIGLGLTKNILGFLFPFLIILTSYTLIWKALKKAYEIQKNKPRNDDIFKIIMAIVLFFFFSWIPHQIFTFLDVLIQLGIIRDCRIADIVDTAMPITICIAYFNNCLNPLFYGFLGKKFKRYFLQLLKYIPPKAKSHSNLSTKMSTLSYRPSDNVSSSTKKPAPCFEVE
Method: as §1

[13] = molecular target: C5aR1 (Homo sapiens, UniProt P21730)
Method: as §1

[14] = molecular target: T10, GPR35 (Homo sapiens, UniProt Q9HC97)
T10 construct: purchased DiscoveRx (Eurofins) gpcrMAX PathHunter β-arrestin panel
Method: as §1

[15] = molecular target: T11, GLP2R (Homo sapiens, UniProt O95838)
T11 construct: purchased DiscoveRx (Eurofins) gpcrMAX PathHunter β-arrestin panel
Method: as §1

[16] = molecular target: T12, CHRM3 (Homo sapiens, UniProt P20309)
T12 construct: purchased DiscoveRx (Eurofins) gpcrMAX PathHunter β-arrestin panel
Method: as §1

[17] = molecular target: T13, ADRA2C (Homo sapiens, UniProt P18825)
T13 construct: purchased DiscoveRx (Eurofins) gpcrMAX PathHunter β-arrestin panel
Method: as §1

[18] = molecular target: T14, CCKAR (Homo sapiens, UniProt P32238)
T14 construct: purchased DiscoveRx (Eurofins) gpcrMAX PathHunter β-arrestin panel
T14 sequence (P32238 whole entry): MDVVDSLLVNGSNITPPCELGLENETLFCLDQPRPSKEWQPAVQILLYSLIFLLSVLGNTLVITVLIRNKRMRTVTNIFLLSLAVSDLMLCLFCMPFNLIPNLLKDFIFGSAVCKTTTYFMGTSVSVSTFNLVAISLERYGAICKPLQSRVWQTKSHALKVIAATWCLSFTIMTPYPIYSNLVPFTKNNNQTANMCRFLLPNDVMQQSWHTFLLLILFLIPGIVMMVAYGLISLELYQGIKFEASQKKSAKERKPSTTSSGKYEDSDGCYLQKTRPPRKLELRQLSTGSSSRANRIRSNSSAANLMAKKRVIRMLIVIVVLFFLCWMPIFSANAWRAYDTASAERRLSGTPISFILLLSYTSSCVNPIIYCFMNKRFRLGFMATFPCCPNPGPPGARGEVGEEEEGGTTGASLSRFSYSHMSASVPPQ
Method: as §1

[19] = molecular target: T15, HTR5A (Homo sapiens, UniProt P47898)
T15 construct: purchased DiscoveRx (Eurofins) gpcrMAX PathHunter β-arrestin panel
T15 sequence (P47898 whole entry): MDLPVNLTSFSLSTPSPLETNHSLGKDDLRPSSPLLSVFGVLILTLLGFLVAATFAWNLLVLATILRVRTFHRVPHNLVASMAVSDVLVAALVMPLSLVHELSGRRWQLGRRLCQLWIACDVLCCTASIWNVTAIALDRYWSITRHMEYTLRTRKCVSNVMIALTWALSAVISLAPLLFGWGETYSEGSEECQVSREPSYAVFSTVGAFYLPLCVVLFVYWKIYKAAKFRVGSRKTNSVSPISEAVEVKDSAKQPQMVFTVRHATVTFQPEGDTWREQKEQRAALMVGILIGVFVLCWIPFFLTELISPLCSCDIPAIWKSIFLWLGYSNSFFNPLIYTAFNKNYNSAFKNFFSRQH
Method: as §1

[20] = molecular target: T16, GLP1R (Homo sapiens, UniProt P43220)
T16 construct: purchased DiscoveRx (Eurofins) gpcrMAX PathHunter β-arrestin panel
Method: as §1

[21] = molecular target: T17, NPBWR2 (Homo sapiens, UniProt P48146)
T17 construct: purchased DiscoveRx (Eurofins) gpcrMAX PathHunter β-arrestin panel
Method: as §1

[22] = molecular target: T18, CHRM1 (Homo sapiens, UniProt P11229)
T18 construct: purchased DiscoveRx (Eurofins) gpcrMAX PathHunter β-arrestin panel
Method: as §1

[23] = molecular target: T19, CCR2 (Homo sapiens, UniProt P41597)
T19 construct: purchased DiscoveRx (Eurofins) gpcrMAX PathHunter β-arrestin panel
Method: as §1

[24] = molecular target: ADRB2 (Homo sapiens, UniProt P07550)
Method: as §1

[25] = molecular target: T20, ADRA2A (Homo sapiens, UniProt P08913)
T20 construct: purchased DiscoveRx (Eurofins) gpcrMAX PathHunter β-arrestin panel
Method: as §1

[26] = molecular target: T21, GRPR (Homo sapiens, UniProt P30550)
T21 construct: purchased DiscoveRx (Eurofins) gpcrMAX PathHunter β-arrestin panel
Method: as §1

[27] = molecular target: T22, P2RY2 (Homo sapiens, UniProt P41231)
T22 construct: purchased DiscoveRx (Eurofins) gpcrMAX PathHunter β-arrestin panel
Method: as §1

[28] = molecular target: T23, EDG1 (Homo sapiens, UniProt P21453)
T23 construct: purchased DiscoveRx (Eurofins) gpcrMAX PathHunter β-arrestin panel
Method: as §1

[29] = molecular target: T24, LTB4R (Homo sapiens, UniProt Q15722)
T24 construct: purchased DiscoveRx (Eurofins) gpcrMAX PathHunter β-arrestin panel
T24 sequence (Q15722 whole entry): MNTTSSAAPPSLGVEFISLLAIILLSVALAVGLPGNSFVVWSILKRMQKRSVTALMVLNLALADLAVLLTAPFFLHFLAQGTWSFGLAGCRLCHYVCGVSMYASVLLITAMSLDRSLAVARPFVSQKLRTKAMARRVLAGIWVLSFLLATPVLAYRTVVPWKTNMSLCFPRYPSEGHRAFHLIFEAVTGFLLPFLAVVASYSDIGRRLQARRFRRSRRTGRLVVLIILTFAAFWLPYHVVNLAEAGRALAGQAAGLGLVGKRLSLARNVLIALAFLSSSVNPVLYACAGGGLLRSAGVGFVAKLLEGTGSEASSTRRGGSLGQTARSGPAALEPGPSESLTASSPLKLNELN
Method: as §1

[30] = molecular target: AVPR1B (Homo sapiens, UniProt P47901)
Method: as §1

[31] = molecular target: T25, TACR3 (Homo sapiens, UniProt P29371)
T25 construct: purchased DiscoveRx (Eurofins) gpcrMAX PathHunter β-arrestin panel
T25 sequence (P29371 whole entry): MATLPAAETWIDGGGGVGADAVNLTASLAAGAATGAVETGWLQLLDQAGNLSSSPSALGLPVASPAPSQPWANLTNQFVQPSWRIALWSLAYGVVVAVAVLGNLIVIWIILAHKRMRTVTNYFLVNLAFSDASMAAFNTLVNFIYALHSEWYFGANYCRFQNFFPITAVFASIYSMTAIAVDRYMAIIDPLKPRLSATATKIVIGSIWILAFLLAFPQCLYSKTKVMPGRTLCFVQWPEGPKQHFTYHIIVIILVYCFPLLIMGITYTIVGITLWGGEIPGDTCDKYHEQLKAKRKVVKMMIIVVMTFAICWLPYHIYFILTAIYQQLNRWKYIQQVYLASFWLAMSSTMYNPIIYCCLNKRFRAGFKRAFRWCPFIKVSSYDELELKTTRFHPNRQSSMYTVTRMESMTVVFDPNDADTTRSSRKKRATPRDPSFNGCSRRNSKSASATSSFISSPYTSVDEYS
Method: as §1

[32] = molecular target: T26, OXTR (Homo sapiens, UniProt P30559)
T26 construct: purchased DiscoveRx (Eurofins) gpcrMAX PathHunter β-arrestin panel
Method: as §1

[33] = molecular target: T27, VIPR1 (Homo sapiens, UniProt P32241)
T27 construct: purchased DiscoveRx (Eurofins) gpcrMAX PathHunter β-arrestin panel
Method: as §1

[34] = molecular target: T28, PPYR1 (Homo sapiens, UniProt P50391)
T28 construct: purchased DiscoveRx (Eurofins) gpcrMAX PathHunter β-arrestin panel
T28 sequence (P50391 whole entry): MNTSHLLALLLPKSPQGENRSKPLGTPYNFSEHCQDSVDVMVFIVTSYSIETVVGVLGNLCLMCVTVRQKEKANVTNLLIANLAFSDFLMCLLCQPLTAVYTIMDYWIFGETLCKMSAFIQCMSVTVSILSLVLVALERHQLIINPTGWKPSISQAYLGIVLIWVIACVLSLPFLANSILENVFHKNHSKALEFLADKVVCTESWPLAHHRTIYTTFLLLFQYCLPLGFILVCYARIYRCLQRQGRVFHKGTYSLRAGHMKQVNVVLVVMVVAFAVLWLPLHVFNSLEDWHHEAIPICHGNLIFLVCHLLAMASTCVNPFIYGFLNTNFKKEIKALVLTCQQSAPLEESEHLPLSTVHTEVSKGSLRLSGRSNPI
Method: as §1

[35] = molecular target: T29, PRLHR (Homo sapiens, UniProt P49683)
T29 construct: purchased DiscoveRx (Eurofins) gpcrMAX PathHunter β-arrestin panel
Method: as §1

[36] = molecular target: T30, MTNR1A (Homo sapiens, UniProt P48039)
T30 construct: purchased DiscoveRx (Eurofins) gpcrMAX PathHunter β-arrestin panel
Method: as §1

[37] = molecular target: T31, OPRL1 (Homo sapiens, UniProt P41146)
T31 construct: purchased DiscoveRx (Eurofins) gpcrMAX PathHunter β-arrestin panel
Method: as §1

[38] = molecular target: AVPR2 (Homo sapiens, UniProt P30518)
Chain of AVPR2 (P30518 whole entry): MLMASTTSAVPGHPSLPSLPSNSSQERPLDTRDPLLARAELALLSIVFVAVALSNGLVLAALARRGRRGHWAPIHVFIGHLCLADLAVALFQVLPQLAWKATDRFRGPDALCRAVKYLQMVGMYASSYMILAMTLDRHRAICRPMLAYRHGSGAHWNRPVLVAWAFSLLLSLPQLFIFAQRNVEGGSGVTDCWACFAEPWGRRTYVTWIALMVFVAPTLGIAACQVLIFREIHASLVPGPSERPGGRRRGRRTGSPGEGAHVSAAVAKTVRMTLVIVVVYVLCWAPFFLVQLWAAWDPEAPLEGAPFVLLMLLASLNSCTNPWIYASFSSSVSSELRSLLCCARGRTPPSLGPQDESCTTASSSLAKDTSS
Method: as §1

[39] = molecular target: T32, MRGPRX2 (Homo sapiens, UniProt Q96LB1)
T32 construct: purchased DiscoveRx (Eurofins) gpcrMAX PathHunter β-arrestin panel
Method: as §1

[40] = molecular target: T33, FPRL1 (Homo sapiens, UniProt P25090)
T33 construct: purchased DiscoveRx (Eurofins) gpcrMAX PathHunter β-arrestin panel
T33 sequence (P25090 whole entry): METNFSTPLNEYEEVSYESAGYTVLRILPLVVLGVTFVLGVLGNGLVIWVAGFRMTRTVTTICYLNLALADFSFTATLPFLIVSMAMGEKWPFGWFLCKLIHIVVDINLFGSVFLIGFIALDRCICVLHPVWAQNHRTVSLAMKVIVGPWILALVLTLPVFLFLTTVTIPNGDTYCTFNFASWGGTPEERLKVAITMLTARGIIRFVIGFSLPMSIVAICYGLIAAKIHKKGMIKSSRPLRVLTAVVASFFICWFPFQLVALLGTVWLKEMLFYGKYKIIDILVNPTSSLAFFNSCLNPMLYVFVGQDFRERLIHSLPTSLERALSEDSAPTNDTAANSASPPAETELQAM
Method: as §1

[41] = molecular target: T34, CRHR2 (Homo sapiens, UniProt Q13324)
T34 construct: purchased DiscoveRx (Eurofins) gpcrMAX PathHunter β-arrestin panel
Method: as §1

[42] = molecular target: T35, HCRTR1 (Homo sapiens, UniProt O43613)
T35 construct: purchased DiscoveRx (Eurofins) gpcrMAX PathHunter β-arrestin panel
T35 sequence (O43613 whole entry): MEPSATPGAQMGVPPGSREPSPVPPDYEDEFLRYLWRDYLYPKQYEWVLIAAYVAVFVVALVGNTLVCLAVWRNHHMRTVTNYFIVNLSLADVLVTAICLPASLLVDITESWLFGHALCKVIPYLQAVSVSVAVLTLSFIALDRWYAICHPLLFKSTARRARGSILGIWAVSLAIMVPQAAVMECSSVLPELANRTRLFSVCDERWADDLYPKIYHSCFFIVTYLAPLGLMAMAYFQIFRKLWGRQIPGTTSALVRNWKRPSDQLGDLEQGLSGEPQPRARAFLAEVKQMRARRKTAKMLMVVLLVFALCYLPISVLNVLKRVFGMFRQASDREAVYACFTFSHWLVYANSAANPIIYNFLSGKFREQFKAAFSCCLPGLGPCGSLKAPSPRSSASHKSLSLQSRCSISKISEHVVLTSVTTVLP
Method: as §1

[43] = molecular target: T36, GALR1 (Homo sapiens, UniProt P47211)
T36 construct: purchased DiscoveRx (Eurofins) gpcrMAX PathHunter β-arrestin panel
Method: as §1

T1 sequence (O95977 whole entry): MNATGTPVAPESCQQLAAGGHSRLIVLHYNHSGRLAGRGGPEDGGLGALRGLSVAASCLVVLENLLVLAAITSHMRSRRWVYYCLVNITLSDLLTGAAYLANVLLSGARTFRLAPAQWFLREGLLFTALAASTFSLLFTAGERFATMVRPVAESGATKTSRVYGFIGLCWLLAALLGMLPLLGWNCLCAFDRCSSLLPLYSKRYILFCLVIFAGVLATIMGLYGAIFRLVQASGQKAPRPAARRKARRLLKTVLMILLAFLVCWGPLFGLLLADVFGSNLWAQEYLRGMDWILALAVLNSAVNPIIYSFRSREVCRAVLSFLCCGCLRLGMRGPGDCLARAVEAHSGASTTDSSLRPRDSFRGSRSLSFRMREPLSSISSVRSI

CC(=O)N[C@@H](CCCC#C/C=C/Cl)CCCCCCC(Cl)Cl [Compound 4, taveuniamide F]
inhibition at 20 µM [1]: 19.6%
inhibition at 20 µM [2]: 56.3%
inhibition at 20 µM [3]: 10.7%
inhibition at 20 µM [4]: 2.4%
inhibition at 20 µM [5]: 15.9%
inhibition at 20 µM [6]: 1.4%
inhibition at 20 µM [7]: 3.8%
inhibition at 20 µM [8]: 38.2%
inhibition at 20 µM [9]: 11.6%
inhibition at 20 µM [10]: 10.3%
inhibition at 20 µM [11]: 16.3%
inhibition at 20 µM [12]: 23.3%
inhibition at 20 µM [13]: 1.4%
inhibition at 20 µM [14]: 27.1%
inhibition at 20 µM [15]: 20.4%
inhibition at 20 µM [16]: 59.9%
inhibition at 20 µM [17]: 25.1%
inhibition at 20 µM [18]: 10.9%
inhibition at 20 µM [19]: 45.6%
inhibition at 20 µM [20]: 59.9%
inhibition at 20 µM [21]: 13.7%
inhibition at 20 µM [22]: 21.8%
inhibition at 20 µM [23]: -1.7%
inhibition at 20 µM [24]: 25.3%
inhibition at 20 µM [25]: 42.3%
inhibition at 20 µM [26]: 6.2%
inhibition at 20 µM [27]: -1.1%
inhibition at 20 µM [28]: 33.1%
inhibition at 20 µM [29]: 4.6%
inhibition at 20 µM [30]: 57.5%
inhibition at 20 µM [31]: 15.2%
inhibition at 20 µM [32]: 34.2%
inhibition at 20 µM [33]: -2.9%
inhibition at 20 µM [34]: 50.7%
inhibition at 20 µM [35]: 46.6%
inhibition at 20 µM [36]: 20.2%
inhibition at 20 µM [37]: 5.4%
inhibition at 20 µM [38]: 14.4%
inhibition at 20 µM [39]: 64.7%
inhibition at 20 µM [40]: 2.5%
inhibition at 20 µM [41]: 12%
inhibition at 20 µM [42]: 44.9%
inhibition at 20 µM [43]: 5.7%
